# Assay results as given in patent publication US10265333B2, “Lipid nanomaterial containing lysophosphatidylcholine or derivative thereof and method for preparing same” (priority 2013, dated 2019).
# Assays:
# [1] = tested on: heparinized rat (SD rat) bloods; assay: Erythrocyte aggregation in heparinized rat blood (semiquantitative score); type: cell-based; details: all six different concentrations (stock to 32-fold diluted)
# Description: In order to evaluate the degree of hemolysis and erythrocyte aggregation induced by LPC-containing lipid nanoparticles (LPC-F; 18:0 LPC concentration: 10 mg/ml) prepared in example 1, 200 μl of saline, distilled water, six different concentration solutions (stock, 2, 4, 8, 16 and 32-fold diluted solutions) of LPC-F, or non-formulated lysophosphatidylcholine (LPC-API) 10 mg/ml concentrated saline solution were directly added into 1 ml of collected heparinized rat (SD rat) bloods, and then, incubated at 37° C. in shaking incubator at 100 rpm for 3 hrs. The prepared LPC-F was fold-diluted with saline to prepare six different concentrations of LPC-F. LPC-API 10 mg/ml concentrated solution was prepared through dispersion in saline, and then fold-diluted with saline to prepare six different concentrations of LPC-API Five independent experiments were repeatedly conducted. […] After the incubation in shaking incubator at 100 rpm, the formed erythrocyte aggregation was semi-quantitatively evaluated, and the OD values were calculated for the supernatant in each tube, which was prepared by centrifuging the incubated samples at 12,500 rpm for 10 minutes, and then reading the OD at 570 nm, respectively. Hemolysis was calculated by equation 1 below. […]
# Erythrocyte aggregation was evaluated based on semiquantative scores as follows: […]
# [2] = tested on: heparinized rat (SD rat) bloods; assay: Hemolysis in heparinized rat blood (OD 570 nm of supernatant); type: cell-based
# Description: In order to evaluate the degree of hemolysis and erythrocyte aggregation induced by LPC-containing lipid nanoparticles (LPC-F; 18:0 LPC concentration: 10 mg/ml) prepared in example 1, 200 μl of saline, distilled water, six different concentration solutions (stock, 2, 4, 8, 16 and 32-fold diluted solutions) of LPC-F, or non-formulated lysophosphatidylcholine (LPC-API) 10 mg/ml concentrated saline solution were directly added into 1 ml of collected heparinized rat (SD rat) bloods, and then, incubated at 37° C. in shaking incubator at 100 rpm for 3 hrs. The prepared LPC-F was fold-diluted with saline to prepare six different concentrations of LPC-F. LPC-API 10 mg/ml concentrated solution was prepared through dispersion in saline, and then fold-diluted with saline to prepare six different concentrations of LPC-API Five independent experiments were repeatedly conducted. If possible, blood taken from same rats was used in each independent experiment. After the incubation in shaking incubator at 100 rpm, the formed erythrocyte aggregation was semi-quantitatively evaluated, and the OD values were calculated for the supernatant in each tube, which was prepared by centrifuging the incubated samples at 12,500 rpm for 10 minutes, and then reading the OD at 570 nm, respectively. Hemolysis was calculated by equation 1 below. The hemolytic reaction was considered positive if the hemolytic percentage was greater than 5%. Hemolytic percentage (%)=(OD sample−OD negative/(OD positive−OD negative)×100 [Equation 1]
# Where negative=saline, and positive=distilled water
# (§1) OD values and semiquantative erythrocyte aggregation scores were expressed by mean±standard deviation of five independent experiments. Multiple comparison tests for different dose groups were conducted. Variance homogeneity was examined using the Levene test (Levene A, Clin Otalary, 1981; 6:145-51). […] Statistical analyses were conducted using SPSS (Release 14.0 K, SPSS Inc., USA; Ludbrook, Clin Exp Pharmacol Physiol, 1997; 24:294-6). A p-value p<0.05 was considered statistically significant.
# [3] = tested on: hair-clipped dorsal back skins of mice; assay: Local irritation test in mice after single subcutaneous administration; type: in vivo; details: for Clinical signs: Normal appearance (% of mice) / Clinical signs: Normal appearance (mice/group) / Clinical signs: Skin ulcerative lesions (mice/group): male ICR mice, 14 days
# Description: In order to evaluate the local irritation of the LPC-containing lipid nanoparticle formulation (LPC-F; 18:0 LPC concentration: 10 mg/ml) prepared in example 1, 20, 10, and 5 ml/kg (18:0 LPC 200, 100, and 50 mg/kg) were single subcutaneously administered to hair-clipped dorsal back skins of mice. Based on the “Testing Guidelines for Safety Evaluation of Drugs” [2009] in Notification No. 2009-116 issued by the Korea Food and Drug Administration, the changes in mortality, body weight, clinical signs, gross and histopathological findings around injection sites during 14 days were compared between the LPC-containing lipid nanoparticle formulations and equal concentrations of lysophosphatidylcholine saline suspension (LPC-API) 10 mg/ml treated group. In the present test, saline was used as negative control, and the highest dosage 200 mg/kg was set based on the maximum permissible dosage 20 ml/kg in rodents (Flecknell, 1996; KFDA Guidelines, Notification 2009-116, 2009; OECD Guidelines, #423, 2001). The dosages were set to 10 and 5 ml/kg in middle and lowest dosage groups, respectively.
# Animal male ICR mice were 6-wk old upon receipt (body weight ranged in 30-32 g), and were 10-wk old after acclimatization for 28 days (body weight ranged in 36.4-49.0 g). The animals were distributed into the following groups for the test.
# as §1, with “All data” for “OD values and semiquantative erythrocyte aggregation scores”, “as” for “by”, “deviation (SD)” for “deviation”, “mice.” for “independent experiments.”, “dosage” for “dose”, “<0.05” for “p<0.05”
# [4] = single s.c. 5 ml/kg (LPC 50 mg/kg)
# [5] = single s.c. 10 ml/kg (LPC 100 mg/kg)
# [6] = single s.c. 20 ml/kg (LPC 200 mg/kg)
substance,measurement,setting,value
lysophosphatidylcholine [LPC-API],Erythrocyte aggregation scores as compared with non-treated or negative saline controls,[1],significant increases
same,Hemolytic percentage (%),"[2]; 2-fold diluted solution, 200 μl in 1 ml rat blood, 37° C., 3 hrs",148.65±15.01%
same,Hemolytic percentage (%),"[2]; 4-fold diluted solution, 200 μl in 1 ml rat blood, 37° C., 3 hrs",129.70±7.23%
same,Hemolytic percentage (%),"[2]; 8-fold diluted solution, 200 μl in 1 ml rat blood, 37° C., 3 hrs",117.67±5.97%
same,Hemolytic percentage (%),"[2]; 16-fold diluted solution, 200 μl in 1 ml rat blood, 37° C., 3 hrs",78.74±3.30%
same,Hemolytic percentage (%),"[2]; 32-fold diluted solution, 200 μl in 1 ml rat blood, 37° C., 3 hrs",26.86±6.40%
same,Hemolytic percentage (%),"[2]; stock (LPC 10 mg/ml), 200 μl in 1 ml rat blood, 37° C., 3 hrs",157.68±10.44%
same,Hemolytic percentage (%),[2]; throughout all different concentrations including the lowest 32-fold diluted solutions,greater than 5%
same,Degree of ulcerative skin lesions around injection sites,"[3]; 200, 100, 50 mg/kg treated groups, from 48 hrs after end of treatment",slight [1+] or moderate [2+]
same,Histopathology: skin ulcerative lesions (% of mice),[3]; single s.c. 50 mg/kg,60%
same,Necropsy: skin ulcerative lesions around injection sites (% of mice),[3]; single s.c. 50 mg/kg,60%
same,Histopathology: skin ulcerative lesions (% of mice),[3]; single s.c. 100 mg/kg,60%
same,Necropsy: skin ulcerative lesions around injection sites (% of mice),[3]; single s.c. 100 mg/kg,60%
same,Histopathology: skin ulcerative lesions (% of mice),[3]; single s.c. 200 mg/kg,100%
same,Necropsy: skin ulcerative lesions around injection sites (% of mice),[3]; single s.c. 200 mg/kg,100%
same,"Histopathology, skins around injection sites: Normal (mice/group)",[3]; [4],2/5
same,Histopathology: hUL degree 1+ Slight (mice/group),[3]; [4],3/5
same,Histopathology: hUL degree 2+ Moderate (mice/group),[3]; [4],0/5
same,Histopathology: hUL degree 3+ Severe (mice/group),[3]; [4],0/5
same,"Histopathology: hUL, histopathological skin ulcerative lesions (mice/group)",[3]; [4],3/5
same,"Necropsy, skins around injection sites: Normal (mice/group)",[3]; [4],2/5
same,Necropsy: gUL degree 1+ Slight (mice/group),[3]; [4],3/5
same,Necropsy: gUL degree 2+ Moderate (mice/group),[3]; [4],0/5
same,Necropsy: gUL degree 3+ Severe (mice/group),[3]; [4],0/5
same,"Necropsy: gUL, gross skin ulcerative lesions (mice/group)",[3]; [4],3/5
same,Clinical signs: Normal appearance (% of mice),[3]; [4],(40%)
same,Clinical signs: Normal appearance (mice/group),[3]; [4],2/5
same,Clinical signs: Skin ulcerative lesions (mice/group),[3]; [4],3/5
same,"Histopathology, skins around injection sites: Normal (mice/group)",[3]; [5],2/5
same,Histopathology: hUL degree 1+ Slight (mice/group),[3]; [5],3/5
same,Histopathology: hUL degree 2+ Moderate (mice/group),[3]; [5],0/5
same,Histopathology: hUL degree 3+ Severe (mice/group),[3]; [5],0/5
same,"Histopathology: hUL, histopathological skin ulcerative lesions (mice/group)",[3]; [5],3/5
same,"Necropsy, skins around injection sites: Normal (mice/group)",[3]; [5],2/5
same,Necropsy: gUL degree 1+ Slight (mice/group),[3]; [5],3/5
same,Necropsy: gUL degree 2+ Moderate (mice/group),[3]; [5],0/5
same,Necropsy: gUL degree 3+ Severe (mice/group),[3]; [5],0/5
same,"Necropsy: gUL, gross skin ulcerative lesions (mice/group)",[3]; [5],3/5
same,Clinical signs: Normal appearance (% of mice),[3]; [5],(40%)
same,Clinical signs: Normal appearance (mice/group),[3]; [5],2/5
same,Clinical signs: Skin ulcerative lesions (mice/group),[3]; [5],3/5
same,"Histopathology, skins around injection sites: Normal (mice/group)",[3]; [6],0/5
same,Histopathology: hUL degree 1+ Slight (mice/group),[3]; [6],3/5
same,Histopathology: hUL degree 2+ Moderate (mice/group),[3]; [6],1/5
same,Histopathology: hUL degree 3+ Severe (mice/group),[3]; [6],1/5
same,"Histopathology: hUL, histopathological skin ulcerative lesions (mice/group)",[3]; [6],5/5
same,"Necropsy, skins around injection sites: Normal (mice/group)",[3]; [6],0/5
same,Necropsy: gUL degree 1+ Slight (mice/group),[3]; [6],3/5
same,Necropsy: gUL degree 2+ Moderate (mice/group),[3]; [6],1/5
same,Necropsy: gUL degree 3+ Severe (mice/group),[3]; [6],1/5
same,"Necropsy: gUL, gross skin ulcerative lesions (mice/group)",[3]; [6],5/5
same,Clinical signs: Normal appearance (% of mice),[3]; [6],(0%)
same,Clinical signs: Normal appearance (mice/group),[3]; [6],0/5
same,Clinical signs: Skin ulcerative lesions (mice/group),[3]; [6],5/5
same,Skin findings around injection sites (conclusion),"[3]; single subcutaneous treatment, compared with negative vehicle control",severe skin ulcerative lesions
